# Assay results: ChEMBL document CHEMBL1208785, “Discovery of novel alpha7 nicotinic receptor antagonists” (Bioorg Med Chem Lett, 2010)
# Target: Neuronal acetylcholine receptor subunit alpha-7 (Rattus norvegicus) (UniProt Q05941)
# Assay: Displacement of [125I]alpha-bungarotoxin from alpha7 nicotinic acetylcholine receptor in rat brain membrane at 10 uM
# Format: cell membranes
# Chain of Neuronal acetylcholine receptor subunit alpha-7 (Rattus norvegicus) (Q05941 whole entry): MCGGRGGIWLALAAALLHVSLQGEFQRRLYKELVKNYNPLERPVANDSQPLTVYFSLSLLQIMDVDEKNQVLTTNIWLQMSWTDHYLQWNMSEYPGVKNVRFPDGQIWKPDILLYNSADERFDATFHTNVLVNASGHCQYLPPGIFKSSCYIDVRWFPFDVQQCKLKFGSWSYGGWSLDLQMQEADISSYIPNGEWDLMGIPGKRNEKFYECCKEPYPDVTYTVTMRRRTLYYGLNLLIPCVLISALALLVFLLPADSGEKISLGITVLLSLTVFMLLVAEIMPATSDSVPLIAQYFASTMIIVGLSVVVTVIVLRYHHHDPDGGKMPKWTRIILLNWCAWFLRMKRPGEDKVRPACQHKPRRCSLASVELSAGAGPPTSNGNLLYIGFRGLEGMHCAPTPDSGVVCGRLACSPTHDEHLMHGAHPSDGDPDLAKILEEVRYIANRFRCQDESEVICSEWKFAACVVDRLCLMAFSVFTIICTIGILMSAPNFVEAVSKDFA
row,SMILES,inhibition [%]
1,CCCc1c(C(=O)NC2CCN(C)CC2)cnn1-c1ccccc1,3.1
2,CCCc1c(C(=O)NC2CCNCC2)cnn1-c1ccccc1,1
3,Cc1c(C(=O)N(C)C2CCN(C)CC2)cnn1-c1ccc(Cl)cc1,13.5
4,CN1CCC(N(C)C(=O)c2cnn(-c3ccccc3-c3ccco3)c2C2CC2)CC1,10.5
5,Cc1ccccc1Cn1cc(C(=O)NCC2CCN(CCc3ccccc3)CC2)nn1,25.2
6,Cc1c(C(=O)N(C)C2CCN(C)CC2)cnn1-c1ccc(F)cc1,11.9
7,O=C(NCC1CCN(C2CCCC2)CC1)c1cn(Cc2ccccc2Cl)nn1,21.6
8,Cc1c(C(=O)NC2CCN(Cc3ccccc3)CC2)cnn1-c1ccc(Cl)cc1,64.1
9,Cc1ccc(-c2c(C(=O)NC3CCN(C)CC3)cnn2-c2ccccc2)cc1,23.4
10,CCCc1c(C(=O)NC2CCN(Cc3ccccc3)CC2)cnn1-c1ccccc1,83.8
11,O=C(NCC1CCN(Cc2ccccc2)CC1)c1cn(Cc2ccc3ccccc3c2)nn1,70.5
12,COc1ccc(Cn2cc(C(=O)NCC3CCN(CCc4ccccc4)CC3)nn2)cc1,9.5
13,Cc1ccc(-c2c(C(=O)N(C)C3CCN(C)CC3)cnn2-c2ccccc2)cc1,12.1
14,COCCN1CCC(CN(C)C(=O)c2cn(Cc3ccccc3Cl)nn2)CC1,43
15,CC(C)CN1CCC(CN(C)C(=O)c2cn(Cc3cc(F)ccc3F)nn2)CC1,59.2
16,O=C(NCC1CCN(CCc2ccccc2)CC1)c1cn(Cc2ccc(Cl)cc2)nn1,18.3
17,CC(C)CN1CCC(CN(C)C(=O)c2cn(Cc3ccccc3Cl)nn2)CC1,72.3
18,Cc1c(C(=O)NC2CCN(Cc3ccccc3)CC2)cnn1-c1ccc(F)cc1,50
19,COCCN1CCC(CNC(=O)c2cn(Cc3ccc(Cl)cc3)nn2)CC1,27.3
20,O=C(NCC1CCN(CCc2ccccc2)CC1)c1cn(Cc2ccccc2Cl)nn1,23.4
